From patent publication US11547697B2, “Heterocyclic compounds and uses thereof” (MILLENNIUM PHARMACEUTICALS, INC., priority 2009, dated 2023)
pIC50: −log10 of the molar value. Like-named read-outs stand apart in the source and are kept apart here.

How the values were obtained:
p110α/p85α = p110α/p85α (Homo sapiens (Human), UniProt P42336); assay: PI 3-Kinase (human) HTRF assay, p110α/p85α; assay type: biochemical
Protocol: An exemplary system is PI 3-Kinase (human) HTRF™ Assay from Upstate. […] Briefly, the assay is a time resolved FRET assay that indirectly measures PIP3 product formed by the activity of a PI3-K. The kinase reaction is performed in a microtitre plate (e.g., a 384 well microtitre plate). The total reaction volume is approximately 20 ul per well. In the first step, each well receives 2 ul of test compound in 20% dimethylsulphoxide resulting in a 2% DMSO final concentration. Next, approximately 14.5 ul of a kinase/PIP2 mixture (diluted in 1× reaction buffer) is added per well for a final concentration of 0.25-0.3 ug/ml kinase and 10 μM PIP2. The plate is sealed and incubated for 15 minutes at room temperature. To start the reaction, 3.5 ul of ATP (diluted in 1× reaction buffer) is added per well for a final concentration of 10 μM ATP. The plate is sealed and incubated for 1 hour at room temperature. The reaction is stopped by adding 5 ul of Stop Solution per well and then 5 ul of Detection Mix is added per well. The plate is sealed, incubated for 1 hour at room temperature, and then read on an appropriate plate reader. Data is analyzed and IC50s are generated using GraphPad Prism 5. […] For PI3K α, β, δ, and γ, the nM concentration of inhibitor to reach IC50 is provided.

p110β/p85α = p110β/p85α (Homo sapiens (Human), UniProt P42338); assay: PI 3-Kinase (human) HTRF assay, p110β/p85α; assay type: biochemical
Sequence of p110β/p85α (P42338 whole entry): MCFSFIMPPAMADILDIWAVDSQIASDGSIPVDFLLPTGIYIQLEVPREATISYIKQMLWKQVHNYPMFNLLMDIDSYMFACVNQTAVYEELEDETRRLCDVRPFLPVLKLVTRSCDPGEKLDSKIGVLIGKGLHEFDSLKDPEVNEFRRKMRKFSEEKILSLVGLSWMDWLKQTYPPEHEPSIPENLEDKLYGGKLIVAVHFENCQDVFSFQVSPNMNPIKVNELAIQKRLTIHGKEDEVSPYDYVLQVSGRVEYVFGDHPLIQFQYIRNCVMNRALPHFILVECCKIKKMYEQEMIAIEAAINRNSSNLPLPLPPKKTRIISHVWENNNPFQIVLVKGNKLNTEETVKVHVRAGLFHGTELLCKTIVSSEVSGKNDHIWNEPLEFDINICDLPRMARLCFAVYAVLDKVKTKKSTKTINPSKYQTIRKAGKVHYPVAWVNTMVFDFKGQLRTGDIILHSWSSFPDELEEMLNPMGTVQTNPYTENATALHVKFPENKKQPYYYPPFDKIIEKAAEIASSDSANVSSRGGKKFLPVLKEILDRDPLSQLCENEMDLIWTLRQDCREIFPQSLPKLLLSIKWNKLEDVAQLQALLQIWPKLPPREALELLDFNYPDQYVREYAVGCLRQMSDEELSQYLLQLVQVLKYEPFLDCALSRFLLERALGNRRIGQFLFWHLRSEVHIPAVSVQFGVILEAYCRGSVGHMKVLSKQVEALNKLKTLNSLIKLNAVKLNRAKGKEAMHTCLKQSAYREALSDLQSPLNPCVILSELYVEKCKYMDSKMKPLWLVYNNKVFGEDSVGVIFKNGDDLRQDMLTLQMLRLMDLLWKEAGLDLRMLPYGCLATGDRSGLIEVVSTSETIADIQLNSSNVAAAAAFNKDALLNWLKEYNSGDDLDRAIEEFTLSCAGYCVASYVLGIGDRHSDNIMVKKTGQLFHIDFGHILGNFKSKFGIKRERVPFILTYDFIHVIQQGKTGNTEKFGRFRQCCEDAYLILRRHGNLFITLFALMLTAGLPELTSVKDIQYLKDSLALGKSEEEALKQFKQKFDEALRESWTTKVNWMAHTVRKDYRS
Sequence of p110β/p85α (P27986 whole entry partner): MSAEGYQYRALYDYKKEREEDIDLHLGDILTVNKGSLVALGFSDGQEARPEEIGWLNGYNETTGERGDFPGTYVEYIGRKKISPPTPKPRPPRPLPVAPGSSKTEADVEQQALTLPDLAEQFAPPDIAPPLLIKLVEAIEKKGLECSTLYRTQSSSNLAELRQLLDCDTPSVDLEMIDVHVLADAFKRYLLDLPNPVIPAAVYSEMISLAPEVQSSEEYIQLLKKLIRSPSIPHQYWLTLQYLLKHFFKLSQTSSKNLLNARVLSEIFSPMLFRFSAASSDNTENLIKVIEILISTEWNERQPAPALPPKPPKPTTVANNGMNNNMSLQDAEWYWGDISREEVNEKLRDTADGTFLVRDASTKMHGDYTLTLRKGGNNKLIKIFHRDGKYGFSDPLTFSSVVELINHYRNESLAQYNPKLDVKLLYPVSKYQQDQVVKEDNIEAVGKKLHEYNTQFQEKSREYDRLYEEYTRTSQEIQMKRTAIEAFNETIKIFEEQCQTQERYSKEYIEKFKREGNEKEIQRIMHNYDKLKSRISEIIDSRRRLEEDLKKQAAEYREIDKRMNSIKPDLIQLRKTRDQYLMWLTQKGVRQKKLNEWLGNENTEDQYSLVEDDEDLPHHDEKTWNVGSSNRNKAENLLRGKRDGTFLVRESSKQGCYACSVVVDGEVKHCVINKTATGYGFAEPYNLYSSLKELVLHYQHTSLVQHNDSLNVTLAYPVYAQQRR

p110γ = p110γ (Homo sapiens (Human), UniProt P48736); assay: PI 3-Kinase (human) HTRF assay, p110γ; assay type: biochemical
Sequence of p110γ (P48736 whole entry): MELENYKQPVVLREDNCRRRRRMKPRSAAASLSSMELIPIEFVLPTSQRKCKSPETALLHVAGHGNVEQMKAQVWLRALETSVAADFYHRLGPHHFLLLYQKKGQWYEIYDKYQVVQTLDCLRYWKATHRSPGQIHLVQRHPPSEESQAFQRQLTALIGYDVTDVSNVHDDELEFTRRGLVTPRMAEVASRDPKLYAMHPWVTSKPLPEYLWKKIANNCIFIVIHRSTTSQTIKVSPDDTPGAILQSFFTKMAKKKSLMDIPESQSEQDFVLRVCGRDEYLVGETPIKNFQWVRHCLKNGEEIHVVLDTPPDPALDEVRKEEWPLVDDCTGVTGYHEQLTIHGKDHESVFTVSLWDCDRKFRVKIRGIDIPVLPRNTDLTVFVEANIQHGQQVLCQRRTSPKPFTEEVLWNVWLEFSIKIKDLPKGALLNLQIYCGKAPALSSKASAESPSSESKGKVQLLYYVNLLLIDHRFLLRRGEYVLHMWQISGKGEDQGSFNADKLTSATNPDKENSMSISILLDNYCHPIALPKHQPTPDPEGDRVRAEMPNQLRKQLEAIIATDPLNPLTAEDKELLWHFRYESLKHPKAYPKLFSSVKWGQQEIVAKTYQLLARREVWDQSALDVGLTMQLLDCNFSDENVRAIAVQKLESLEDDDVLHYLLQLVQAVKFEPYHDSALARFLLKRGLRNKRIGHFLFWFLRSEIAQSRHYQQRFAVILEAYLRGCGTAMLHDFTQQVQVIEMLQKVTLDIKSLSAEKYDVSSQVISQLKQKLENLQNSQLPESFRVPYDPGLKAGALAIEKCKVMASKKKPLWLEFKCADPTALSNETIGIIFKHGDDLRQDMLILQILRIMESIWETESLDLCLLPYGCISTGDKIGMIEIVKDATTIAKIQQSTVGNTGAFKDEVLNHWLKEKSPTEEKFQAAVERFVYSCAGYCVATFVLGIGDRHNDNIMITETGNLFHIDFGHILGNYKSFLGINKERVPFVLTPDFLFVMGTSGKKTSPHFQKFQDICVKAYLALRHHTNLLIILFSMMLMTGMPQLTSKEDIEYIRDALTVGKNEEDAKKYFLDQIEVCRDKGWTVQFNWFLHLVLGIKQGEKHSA

recombinant mTOR = recombinant mTOR (Homo sapiens (Human), UniProt P42345); assay: mTOR inhibition assay (radiometric or LanthaScreen TR-FRET); assay type: biochemical
Protocol: The compounds described herein can be tested against recombinant mTOR (Invitrogen) in an assay containing 50 mM HEPES, pH 7.5, 1 mM EGTA, 10 mM MgCl2, 2.5 mM, 0.01% Tween, 10 pM ATP (2.5 μCi of μ-32P-ATP), and 3 μg/mL BSA. R^at recombinant PHAS-1/4EBP1 (Calbiochem; 2 mg/mL) is used as a substrate. Reactions are terminated by spotting onto nitrocellulose, which is washed with 1M NaCl/1% phosphoric acid (approximately 6 times, 5-10 minutes each). Sheets are dried and the transferred radioactivity quantitated by phosphorimaging.
For instance, one can use Invitrogen's LanthaScreen™ Kinase assay to test the inhibitors of mTOR disclosed herein. This assay is a time resolved FRET platform that measures the phosphorylation of GFP labeled 4EBP1 by mTOR kinase. The kinase reaction is performed in a white 384 well microtitre plate. The total reaction volume is 20 ul per well and the reaction buffer composition is 50 mM HEPES pH7.5, 0.01% Polysorbate 20, 1 mM EGTA, 10 mM MnCl2, and 2 mM DTT. In the first step, each well receives 2 ul of test compound in 20% dimethylsulphoxide resulting in a 2% DMSO final concentration. Next, 8 ul of mTOR diluted in reaction buffer is added per well for a 60 ng/ml final concentration. To start the reaction, 10 ul of an ATP/GFP-4EBP1 mixture (diluted in reaction buffer) is added per well for a final concentration of 10 μM ATP and 0.5 μM GFP-4EBP1. The plate is sealed and incubated for 1 hour at room temperature. […] The plate is sealed, incubated for 1 hour at room temperature, and then read on a plate reader set up for LanthaScreen™ TR-FRET. Data is analyzed and IC50s are generated using GraphPad Prism 5.

[1] = test system: tumor cells with a PI3Kα mutation (e.g., MDA-MB-361 and T47D); assay: Proliferation of tumor cells with PI3Kα mutation; assay type: cell-based; conditions: Homo sapiens; T47D cells; read-out: T47D proliferation IC50
p110δ/p85α = p110δ/p85α (Homo sapiens (Human), UniProt O00329); assay: PI 3-Kinase (human) HTRF assay, p110δ/p85α; assay type: biochemical
Sequence of p110δ/p85α (O00329 whole entry): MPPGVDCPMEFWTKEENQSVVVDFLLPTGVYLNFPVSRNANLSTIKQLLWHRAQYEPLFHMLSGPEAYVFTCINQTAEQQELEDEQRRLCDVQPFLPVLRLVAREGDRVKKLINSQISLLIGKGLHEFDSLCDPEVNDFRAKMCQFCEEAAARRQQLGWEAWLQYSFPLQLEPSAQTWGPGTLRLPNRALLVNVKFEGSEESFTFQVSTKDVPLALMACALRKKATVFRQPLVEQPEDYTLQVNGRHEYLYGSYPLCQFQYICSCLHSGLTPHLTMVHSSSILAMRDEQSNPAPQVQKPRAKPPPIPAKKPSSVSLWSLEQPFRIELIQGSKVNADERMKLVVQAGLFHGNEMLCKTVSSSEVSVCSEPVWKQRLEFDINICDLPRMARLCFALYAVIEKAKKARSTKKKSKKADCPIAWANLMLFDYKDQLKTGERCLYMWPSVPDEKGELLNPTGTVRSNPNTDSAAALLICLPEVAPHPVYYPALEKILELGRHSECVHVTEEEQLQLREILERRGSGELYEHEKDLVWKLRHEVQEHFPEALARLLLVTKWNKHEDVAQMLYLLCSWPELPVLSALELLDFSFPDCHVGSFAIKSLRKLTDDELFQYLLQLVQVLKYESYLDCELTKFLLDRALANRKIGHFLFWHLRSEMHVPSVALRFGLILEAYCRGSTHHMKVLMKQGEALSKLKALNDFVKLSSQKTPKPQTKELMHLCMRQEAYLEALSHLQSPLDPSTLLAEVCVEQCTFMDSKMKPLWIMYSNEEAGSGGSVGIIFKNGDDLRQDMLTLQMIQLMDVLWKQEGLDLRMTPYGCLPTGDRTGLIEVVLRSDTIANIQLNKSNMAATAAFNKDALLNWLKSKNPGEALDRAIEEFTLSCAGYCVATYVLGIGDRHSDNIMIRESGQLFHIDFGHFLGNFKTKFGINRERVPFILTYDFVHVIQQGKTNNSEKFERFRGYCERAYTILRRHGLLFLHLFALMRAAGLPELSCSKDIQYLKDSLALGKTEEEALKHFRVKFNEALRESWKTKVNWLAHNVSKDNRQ
Sequence of p110δ/p85α (P27986 whole entry partner): as the sequence (P27986 whole entry partner) above

[2] = in vitro, read-out: PI3K α IC50
[3] = in vitro, read-out: PI3K β IC50
[4] = in vitro, read-out: PI3K γ IC50
[5] = in vitro, read-out: PI3K δ IC50

Sequence of p110α/p85α (P42336 whole entry): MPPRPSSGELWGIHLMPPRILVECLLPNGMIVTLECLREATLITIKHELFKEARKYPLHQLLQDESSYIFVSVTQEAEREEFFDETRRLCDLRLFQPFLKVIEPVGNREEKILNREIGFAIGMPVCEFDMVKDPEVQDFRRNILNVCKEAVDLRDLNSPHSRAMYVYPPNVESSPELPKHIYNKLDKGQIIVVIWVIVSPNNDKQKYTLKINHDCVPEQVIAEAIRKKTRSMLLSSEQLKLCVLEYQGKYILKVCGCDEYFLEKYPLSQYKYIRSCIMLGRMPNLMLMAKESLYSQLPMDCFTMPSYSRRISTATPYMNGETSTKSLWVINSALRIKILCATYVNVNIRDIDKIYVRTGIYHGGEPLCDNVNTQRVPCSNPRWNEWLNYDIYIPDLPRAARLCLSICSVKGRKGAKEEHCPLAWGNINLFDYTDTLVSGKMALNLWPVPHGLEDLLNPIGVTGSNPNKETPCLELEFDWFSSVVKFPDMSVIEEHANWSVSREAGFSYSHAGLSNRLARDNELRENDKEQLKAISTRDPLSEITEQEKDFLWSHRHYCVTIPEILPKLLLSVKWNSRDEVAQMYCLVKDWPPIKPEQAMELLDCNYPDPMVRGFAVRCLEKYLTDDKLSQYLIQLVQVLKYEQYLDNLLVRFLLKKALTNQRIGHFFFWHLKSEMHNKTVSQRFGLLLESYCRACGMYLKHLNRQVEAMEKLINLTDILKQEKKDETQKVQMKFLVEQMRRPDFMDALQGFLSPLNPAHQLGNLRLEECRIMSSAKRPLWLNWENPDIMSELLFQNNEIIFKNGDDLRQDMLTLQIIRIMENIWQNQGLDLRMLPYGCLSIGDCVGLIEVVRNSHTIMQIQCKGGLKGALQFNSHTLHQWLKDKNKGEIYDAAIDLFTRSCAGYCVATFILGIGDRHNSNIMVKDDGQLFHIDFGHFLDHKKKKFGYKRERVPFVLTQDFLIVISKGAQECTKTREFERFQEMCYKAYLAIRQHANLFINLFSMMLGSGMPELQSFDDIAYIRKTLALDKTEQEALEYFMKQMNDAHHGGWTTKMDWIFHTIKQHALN
Sequence of p110α/p85α (P27986 whole entry partner): as the sequence (P27986 whole entry partner) above

| Structure (SMILES) | pIC50 (p110α/p85α; [2]) | pIC50 (p110β/p85α; [3]) | pIC50 (p110γ; [4]) | pIC50 (recombinant mTOR; in vitro, read-out: MTORC IC50) | pIC50 [1] | pIC50 (p110δ/p85α; [5]) | pIC50 (p110α/p85α; read-out: PI3K α In Vitro IC50) | pIC50 (p110β/p85α; read-out: PI3K β In Vitro IC50) | pIC50 (p110δ/p85α; read-out: PI3K δ In Vitro IC50) | pIC50 (p110γ; read-out: PI3K γ In Vitro IC50) | pIC50 (recombinant mTOR; read-out: MTORC In Vitro IC50) |
| --- | --- | --- | --- | --- | --- | --- | --- | --- | --- | --- | --- |
| Nc1nc2cc(-c3ccc4ncc(N5CC[C@H](O)C5)nc4c3)ccc2o1 [compound 262] | > 7.00 | > 6.00 | > 6.00 | > 5.00 | > 5.00 | – | – | – | – | – | – |
| C[C@@H]1CN(C(=O)C2CN(c3cnc4ccc(-c5ccc6oc(N)nc6c5)cc4n3)C2)CCN1 [compound 267] | > 7.00 | > 5.00 | > 6.00 | > 5.00 | > 6.00 | > 6.00 | – | – | – | – | – |
| CC(C)[C@@H](N)C(=O)N1CCN(c2cnc3ccc(-c4ccc5oc(N)nc5c4)cc3n2)CC1 [compound 270] | > 7.00 | > 6.00 | > 6.00 | > 5.00 | > 6.00 | > 6.00 | – | – | – | – | – |
| Nc1nc2cc(-c3ccc4ncc(N5CC(N6CCOCC6)C5)nc4c3)ccc2o1 [compound 273] | > 7.00 | – | > 5.00 | > 6.00 | > 6.00 | – | – | – | – | – | – |
| CN1CCN(C2CN(c3cnc4ccc(-c5ccc6oc(N)nc6c5)cc4n3)C2)CC1 [compound 274] | > 7.00 | > 5.00 | > 5.00 | > 5.00 | > 6.00 | > 5.00 | – | – | – | – | – |
| Nc1nc2cc(-c3ccc4ncc(N5CC(C(=O)N6CCN(C7CC7)CC6)C5)nc4c3)ccc2o1 [compound 276] | > 7.00 | > 5.00 | > 6.00 | > 5.00 | > 6.00 | > 6.00 | – | – | – | – | – |
| CN1CCN(c2cnc3ccc(-c4ccc5oc(N)nc5c4)cc3n2)CC1=O [compound 277] | > 7.00 | > 6.00 | > 6.00 | > 5.00 | > 6.00 | > 5.00 | – | – | – | – | – |
| Nc1nc2cc(-c3ccc4ncc(N5CCN(C(=O)[C@@H](N)CO)CC5)nc4c3)ccc2o1 [compound 298] | > 7.00 | > 6.00 | > 5.00 | > 5.00 | > 5.00 | > 5.00 | – | – | – | – | – |
| CN1CCN(C2CN(C(=O)c3cnc4ccc(-c5ccc6oc(N)nc6c5)cn34)C2)CC1 [compound 303] | > 7.00 | – | – | > 5.00 | > 6.00 | > 5.00 | – | – | – | – | – |
| Nc1nc2cc(-c3nc(N4CCOCC4)c4cnn(C5CCNCC5)c4n3)ccc2o1 [compound 348] | > 6.00 | > 7.00 | > 6.00 | > 6.00 | – | > 5.00 | – | – | – | – | – |
| Cc1nccn1C1CN(c2cnc3ccc(-c4ccc5oc(N)nc5c4)cc3n2)C1 [compound 354] | > 7.00 | > 5.00 | > 5.00 | > 5.00 | > 6.00 | > 5.00 | – | – | – | – | – |
| CS(=O)(=O)N1CCN(C2CCN(c3cnc4ccc(-c5ccc6oc(N)nc6c5)cc4n3)CC2)CC1 [compound 377] | > 7.00 | > 5.00 | > 6.00 | > 5.00 | – | > 5.00 | – | – | – | – | – |
| CN(C)[C@@H]1CCN(c2cnc3ccc(-c4ccc5oc(N)nc5c4)cc3n2)C1 [compound 378] | > 7.00 | > 7.00 | > 5.00 | > 6.00 | – | > 5.00 | – | – | – | – | – |
| Nc1nc2cc(-c3ccc4ncc(N5CCNC(C(F)(F)F)C5)nc4c3)ccc2o1 (centres unmarked) [compound 384] | > 7.00 | > 6.00 | > 6.00 | > 6.00 | – | > 5.00 | – | – | – | – | – |
| CC1(C)CN(C2CN(c3cnc4ccc(-c5ccc6oc(N)nc6c5)cc4n3)C2)CCN1 [compound 388] | > 7.00 | > 6.00 | > 6.00 | > 7.00 | – | > 6.00 | – | – | – | – | – |
| COc1ncc(-c2ccc3ncc(C(=O)N4CCOCC4)n3c2)cc1NS(=O)(=O)c1ccc(F)cc1F [compound 417] | – | – | – | – | – | – | > 7.00 | > 7.00 | > 7.00 | > 7.00 | > 6.00 |
| CS(=O)(=O)Nc1cc(-c2ccc3ncc(C(=O)N4CCOCC4)n3c2)cnc1Cl [compound 418] | – | – | – | – | – | – | > 7.00 | > 7.00 | > 7.00 | > 7.00 | > 7.00 |
| O=C(c1cnc2ccc(-c3cnc(Cl)c(NS(=O)(=O)c4ccc(F)cc4F)c3)cn12)N1CCOCC1 [compound 419] | – | – | – | – | – | – | > 7.00 | > 7.00 | > 7.00 | > 7.00 | > 6.00 |
